What all share (experiment): NCI anticancer screen, dose series, 48 h
The test system of experiment [1] is HCT-116.
Experiment [2] concerns HOP-92.
In experiment [3] the test system is NCI-H522.
Experiment [4] relates to SNB-75.
In experiment [5] the test system is HOP-62.
The test system of experiment [6] is DU-145.
Experiment [7] concerns RXF 393.
Experiment [8] deals with OVCAR-5.
The subject of experiment [9] is NCI-H226.
For experiment [10], the system named is HCT-15.
Experiment [11] deals with UO-31.
The test system of experiment [12] is SF-268.
The test system of experiment [13] is MDA-MB-435.
The test system of experiment [14] is SF-295.
Experiment [15] deals with MOLT-4.
Experiment [16] concerns LOX IMVI.
The subject of experiment [17] is K562.
In experiment [18] the test system is UACC-257.
The test system of experiment [19] is TK-10.

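Interpolation was linear, between the two tested concentrations surrounding the appropriate level; five concentrations were tested over 48 hours in 96-well plates. The concentration for 50% growth inhibition is given as GI50.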 Active and inactive are the calls of the source. Rule as the data show it: active = GI50 up to about 1.1 µM and inactive = higher.

For `Clc1ccccc1NN(Cc1ccccn1)c1ccccc1Cl`, the GI50 is 14 µM (inactive) in experiment [1]; 16.1 µM (inactive) in [2]; 17.6 µM (inactive) in experiment [3]; 20.1 µM (inactive) in [4]; 17.9 µM (inactive) in experiment [5]; 35.5 µM (inactive) in experiment [6]. Also, the GI50 in experiment [7] was 14.9 µM (inactive); in experiment [8], 20.9 µM (inactive); in experiment [9], 16.2 µM (inactive); in [10], 24.9 µM; in experiment [11], 20.4 µM (inactive); in experiment [12], 22.7 µM (inactive). Further, the GI50 in experiment [13] is 16.6 µM (inactive); in [14], 30.1 µM (inactive); in experiment [15] it was 17.3 µM (inactive); in experiment [16], 18.6 µM (inactive); in [17], 17.3 µM (inactive).
In the case of `COC(=O)[C@]12CCC(C)(C)C[C@H]1C1=CC[C@@H]3[C@@]4(C)CC[C@H](OC5OC(CO)C(O)C(O)C5OC5OC(CO)C(O)C(O)C5O)C(C)(C)[C@@H]4CC[C@@]3(C)[C@]1(C)CC2` (stereo not given in full), the GI50 was 5.41 µM (inactive) in experiment [1]; 3.91 µM (inactive) in experiment [2]; 3.1 µM (inactive) in experiment [3]; 13.5 µM (inactive) in experiment [4]; 12.6 µM (inactive) in experiment [5]; 12 µM (inactive) in experiment [6]. For the same compound, the GI50 was 5.75 µM (inactive) in experiment [7]; 7.85 µM (inactive) in [18]; 16.6 µM (inactive) in experiment [8]; 3.43 µM (inactive) in experiment [9]; 12.5 µM in experiment [10]; 3.4 µM (inactive) in experiment [11]. Besides, the GI50 in experiment [12] is 13.7 µM (inactive); in experiment [13] it was 7.6 µM (inactive); in experiment [14] it was 14.2 µM (inactive); in experiment [15], 17.5 µM (inactive); in experiment [16] it was 6.15 µM (inactive); in experiment [17] it was 10.1 µM (inactive).
With `CC1=CC(=O)N(n2c(Cc3ccccc3)n[nH]c2=O)C1=O`, the GI50 in experiment [1], in experiment [19], in experiment [2], in experiment [3], in [6] and in [7] was > 100 µM (inactive) in each case. For the same compound, the GI50 was > 100 µM (inactive) in experiment [18]; > 100 µM (inactive) in experiment [8]; > 100 µM (inactive) in [9]; > 100 µM in experiment [10]; > 100 µM (inactive) in experiment [11]; > 100 µM (inactive) in experiment [12]. Further, the GI50 in experiment [13] was > 100 µM (inactive); in experiment [14], > 100 µM (inactive); in experiment [15], 33.9 µM (inactive); in [16], 83.4 µM (inactive); in experiment [17] it was 71.9 µM (inactive).
As for `CCOP(=O)(OCC)C(F)(F)CC1CCCCC1`, the GI50 in experiment [1] was > 10 µM (inactive); in [19] it was > 10 µM (inactive); in experiment [2] it was > 10 µM (inactive); in [4], 4.38 µM (inactive); in [5], > 10 µM (inactive); in experiment [6] it was > 10 µM (inactive). The GI50 in experiment [7] is > 10 µM (inactive); in experiment [18], > 10 µM (inactive); in experiment [8] it was > 10 µM (inactive); in experiment [9] it was > 10 µM (inactive); in experiment [10], > 10 µM; in experiment [11], > 10 µM (inactive). For the same compound, the GI50 in experiment [12], in experiment [13], in [14], in experiment [15], in experiment [16] and in [17] was > 10 µM (inactive) each time.

These data come from ChEMBL document CHEMBL1201862, “PubChem BioAssay data set” (2004).
